Test results reported in patent US11034692B1 (Genentech, Inc., priority 2017, dated 2021).

What follows are compounds tested on primary human pan T cells (assay: Human T-Cell IL2 Induction Assay). Conditions: assayed concentration 0.93 μM; anti-CD3/anti-CD28 stimulated primary human pan T cells.
Type: cell-based
Description: Human T-Cell IL2 Induction Assay
Anti-CD3 and anti-CD28 activates TCR signaling in primary human pan T cells leading to IL-2 promoter induction. Secreted IL-2 in cell culture supernatant is detected by electrochemiluminescence using a capture antibody against IL-2 and an anti-IL-2 antibody labeled with SULFO-tag.
See www.mesoscale.com for additional electrochemiluminescence technology information.
Incubate primary human pan T cells with varying concentrations of test compounds for 30 minutes in a humidified incubator at 37° C. and 5% CO2. Transfer cells to a plate pre-coated with a fixed concentration of anti-human CD3 (determined separately for each donor lot) and add soluble anti-human CD28 (final concentration=1 μg/ml). Stimulate cells in a humidified incubator at 37° C. and 5% CO2 for 4 hours. Transfer 25 μl of supernatant to a MSD single spot plate pre-coated with an anti-human IL-2 antibody. Incubate MSD plate overnight at 4° C. with gentle shaking. Wash MSD plate 4× with wash buffer. Add SULFO-tagged detection antibody at a 1:50 dilution and incubate at room temperature shaking for 2 hours. Wash MSD plate 4× with wash buffer and add 150 μl 2×MSD read buffer. Read on an MSD instrument. Normalize data to stimulated/untreated controls to calculate % activity at each concentration of compound.
Materials: • Frozen Primary Human Pan-T Cells (StemCell Technologies #70024) • anti-human CD3 (OKT3 clone) (eBioscience #16-0037-81) • anti-human CD28 (CD28.2 clone) (BD #555725) • 96-well Human IL-2 tissue culture kit (MSD #K151AHB-4)
Instrumentation: • Biomek FX for liquid handling (Beckman Coulter) • MSD SECTOR S 600 (Meso Scale Discovery)
Exemplary compounds of Formula I or Ia were tested in the human T-cell IL-2 induction assays. The % increase measured for IL-2 in cells treated by the test compounds relative to untreated cells are provided in Table B2 for certain compounds (structures as shown with the HPK1 Ki values).

In the case of `Cc1ccncc1-c1cc2cc(NC(=O)C3CC3)ncc2c(N)n1` [Compound 24, N-(8-amino-6-(4-methylpyridin-3-yl)-2,7-naphthyridin-3-yl)cyclopropanecarboxamide], the “% IL-2 increase relative to untreated cells” value is reported as 513%.

Same assay, conditions: assayed concentration 2.8 μM; anti-CD3/anti-CD28 stimulated primary human pan T cells

For `Cc1cc(-c2ncco2)ccc1-c1cc2cc(NC(=O)[C@H]3C[C@@H]3c3cnn(C)c3)ncc2c(N)n1` (single isomer, unassigned) [Compound 379], the “% IL-2 increase relative to untreated cells” value was 547%.

These compounds were tested against HPK1 (Homo sapiens, UniProt Q92918) (assay: HPK1 Lantha Binding Assay ("Lanth")). Conditions: Table B1-1, read-out: HPK1 Ki (μM) (Lanth).
Method in brief: (§1)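 TR-FRET tracer displacement with 2 nM GST-tagged kinase, 2 nM Eu-anti-GST antibody and 15 nM Tracer222 at 23 C. Enzyme–antibody preincubated 1 h with compound, then tracer added for 1 h; 340 nm excitation, 615/665 nm emission. Ki from Morrison fit over an 11-point 5-fold dilution.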

Sequence of HPK1 (Homo sapiens, UniProt Q92918) (Q92918 whole entry, looked up): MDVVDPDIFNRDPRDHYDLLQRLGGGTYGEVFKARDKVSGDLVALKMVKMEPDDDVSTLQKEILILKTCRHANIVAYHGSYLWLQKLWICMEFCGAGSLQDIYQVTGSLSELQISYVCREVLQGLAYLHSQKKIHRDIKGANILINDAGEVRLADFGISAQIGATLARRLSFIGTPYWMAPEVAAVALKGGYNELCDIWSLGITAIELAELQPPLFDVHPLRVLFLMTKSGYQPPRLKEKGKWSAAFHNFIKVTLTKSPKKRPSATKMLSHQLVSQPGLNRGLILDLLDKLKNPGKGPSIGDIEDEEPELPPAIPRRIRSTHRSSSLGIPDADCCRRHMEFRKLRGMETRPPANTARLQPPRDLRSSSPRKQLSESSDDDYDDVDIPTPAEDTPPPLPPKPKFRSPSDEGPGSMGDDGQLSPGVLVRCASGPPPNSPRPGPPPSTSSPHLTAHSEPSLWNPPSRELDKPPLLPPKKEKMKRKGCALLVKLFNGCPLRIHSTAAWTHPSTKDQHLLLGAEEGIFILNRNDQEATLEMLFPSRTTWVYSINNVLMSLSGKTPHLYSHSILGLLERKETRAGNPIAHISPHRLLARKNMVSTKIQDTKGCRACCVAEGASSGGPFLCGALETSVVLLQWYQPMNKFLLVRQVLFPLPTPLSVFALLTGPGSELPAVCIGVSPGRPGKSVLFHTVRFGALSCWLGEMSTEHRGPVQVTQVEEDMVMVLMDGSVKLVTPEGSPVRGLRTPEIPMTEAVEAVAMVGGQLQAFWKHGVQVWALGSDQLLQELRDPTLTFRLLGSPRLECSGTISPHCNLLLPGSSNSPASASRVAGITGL

Point of comparison: `Cc1ccncc1-c1cc2cc(Nc3cc(C(C)O)n(C)n3)ncc2c(N)n1` (racemic) [Compound 221, (+/−)-1-(3-(8-amino-6-(4-methylpyridin-3-yl)-2,7-naphthyridin-3-ylamino)-1-methyl-1H-pyrazol-5-yl)ethanol], Ki 0.026 nM. Against it:
- Cc1ccncc1-c1cc2cc(NC(=O)[C@@H]3C[C@H]3F)ncc2c(N)n1 (racemic) [Compound 51, (±)-trans-N-(8-amino-6-(4-methylpyridin-3-yl)-2,7-naphthyridin-3-yl)-2-fluorocyclopropanecarboxamide] — 50-fold higher, 1.3 nM
- Cc1ccncc1-c1cc2cc(NC(=O)[C@@H]3C[C@H]3CC#N)ncc2c(N)n1 (racemic) [Compound 212, (+/−)-trans-N-(8-amino-6-(4-methylpyridin-3-yl)-2,7-naphthyridin-3-yl)-2-(cyanomethyl)cyclopropanecarboxamide] — 26-fold higher, 0.685 nM
- Nc1nc(-c2cccnc2)cc2cc(NC(=O)[C@@H]3C[C@@H]3F)ncc12 (racemic) [Compound 106, (±)-cis-N-(8-amino-6-(pyridin-3-yl)-2,7-naphthyridin-3-yl)-2-fluorocyclopropane-1-carboxamide] — 190-fold higher, 4.97 nM
- Cc1ccncc1-c1cc2cc(NC(=O)C(C)C#N)ncc2c(N)n1 (racemic) [Compound 38, N-(8-amino-6-(4-methylpyridin-3-yl)-2,7-naphthyridin-3-yl)-2-cyanopropanamide] — 1900-fold higher, 48.4 nM
- Nc1nc(-c2ccc[nH]c2=O)cc2cc(NC(=O)C3CC3)ncc12 [Compound 42, N-(8-amino-6-(2-oxo-1,2-dihydropyridin-3-yl)-2,7-naphthyridin-3-yl) cyclopropanecarboxamide] — far higher, 5800 nM
- Cc1ccncc1-c1cc2cc(NC(=O)[C@H]3C[C@]34CCN(S(C)(=O)=O)C4)ncc2c(N)n1 (racemic) [Compound 149, (±)-cis-N-(8-amino-6-(4-methylpyridin-3-yl)-2,7-naphthyridin-3-yl)-5-(methylsulfonyl)-5-azaspiro[2.4]heptane-1-carboxamide] — 30-fold higher, 0.78 nM
- N#C[C@@H]1C[C@H]1C(=O)Nc1cc2cc(-c3cn[nH]c3)nc(N)c2cn1 (racemic) [Compound 112, (±)-trans-N-(8-amino-6-(1H-pyrazol-4-yl)-2,7-naphthyridin-3-yl)-2-cyanocyclopropane-1-carboxamide] — 72-fold higher, 1.87 nM
- CC(=O)N1CCC(n2cc(Nc3cc4cc(-c5cnccc5C)nc(N)c4cn3)cn2)C1 (racemic) [Compound 218, (+/−)-1-(3-(4-(8-amino-6-(4-methylpyridin-3-yl)-2,7-naphthyridin-3-ylamino)-1H-pyrazol-1-yl)pyrrolidin-1-yl)ethanone] — within 1.5-fold, 0.02 nM
- CCNC(=O)[C@H]1C[C@H]1C(=O)Nc1cc2cc(-c3cnccc3C)nc(N)c2cn1 (racemic) [Compound 137, (±)-(cis)-N1-(8-amino-6-(4-methylpyridin-3-yl)-2,7-naphthyridin-3-yl)-N2-ethylcyclopropane-1,2-dicarboxamide] — 4200-fold higher, 110 nM
- Cc1ccncc1-c1cc2cc(NC3CCNC3)ncc2c(N)n1 (racemic) [Compound 120, (±)-3-(4-methyl-3-pyridyl)-N6-pyrrolidin-3-yl-2,7-naphthyridine-1,6-diamine] — 92000-fold higher, 2400 nM

Same assay, conditions: Table B1-2, read-out: HPK1 Ki, L = Lanth

Point of comparison: `Cc1cccc(CC#N)c1-c1cc2cc(NC(=O)[C@@H]3C[C@H]3c3cnn(C)c3)ncc2c(N)n1` (single isomer, unassigned) [Compound 381], Ki 8.1 nM. Against it:
- Cc1cccc(Cl)c1-c1cc2cc(NC(=O)[C@H]3C[C@@H]3CC#N)ncc2c(N)n1 (single isomer, unassigned) [Compound 362] — 37-fold lower, 0.22 nM
- Cc1ccncc1-c1cc2cc(NC(=O)C3CC34CC4)ncc2c(N)n1 (stereo not shown) [Compound 413, N-(8-amino-6-(4-methylpyridin-3-yl)-2,7-naphthyridin-3-yl)spiro[2.2]pentane-1-carboxamide] — 1.9-fold higher, 15 nM
- Cc1ccc2c(c1-c1cc3cc(NC(=O)[C@H]4C[C@@H]4CC#N)ncc3c(N)n1)CC[C@@]2(C)O (single isomer, unassigned) [Compound 353] — 3.6-fold higher, 29 nM

The compounds below were run against HPK1 (assay: HPK1 Lantha Binding Assay ("Lanth")). Conditions: Table B1-1, read-out: HPK1 Ki (μM) (Lanth).
Method in brief: as §1

Point of comparison: `Cc1ccncc1-c1cc2cc(NC(=O)C3CC3)ncc2c(N)n1` [Compound 24, N-(8-amino-6-(4-methylpyridin-3-yl)-2,7-naphthyridin-3-yl)cyclopropanecarboxamide], Ki 0.00068 µM. Against it:
- Nc1nc(-c2ccc[nH]c2=O)cc2cc(NC(=O)C3CC3)ncc12 [Compound 42, N-(8-amino-6-(2-oxo-1,2-dihydropyridin-3-yl)-2,7-naphthyridin-3-yl) cyclopropanecarboxamide] — 60-fold higher, 0.0405 µM

Same assay, conditions: Table B2, read-out: HPK1 Ki (nM), L = Lanth

With `Cc1ccncc1-c1cc2cc(NC(=O)C3CC3)ncc2c(N)n1` [Compound 24, N-(8-amino-6-(4-methylpyridin-3-yl)-2,7-naphthyridin-3-yl)cyclopropanecarboxamide] the Ki was 0.00068 µM.

These compounds were tested against HPK1-FL (HPK full length, T165E S171E) (Homo sapiens (Human), UniProt Q92918, S171E/T165E) (assay: HPK1-FL HTRF Enzymatic Assay ("HTRF")). Conditions: ATP 1 mM, Table B1-2, read-out: HPK1 Ki, H = HTRF.
Type: biochemical
Description: HPK1-FL HTRF Enzymatic Assay (“HTRF”)
HPK-FL enzyme phosphorylates Biotin-SLP-76 substrate in the presence of ATP at 1 mM and varying concentrations of test compound. Product is detected by FRET using Eu-anti-pSLP76 Ab and SA-XL665. See www.cisbio.com/HTRF for additional HTRF technology information.
Instrumentation: • Echo555 compound dispenser • Agilent Bravo • Perkin Elmer Envision
Materials: • Assay plate: White ProxiPlate 384 F (PerkinElmer cat #6008289) • Kinase: HPK full length double mutant • Substrate: Biotin-SLP76 • ATP: 100 mM ATP • BSG: 2% BSG • DMSO: DMSO (Sigma cat #34869-100ML) • Reaction Buffer: H2O/50 mM HEPES, pH 7.5/10 mM MgCl2/2 mM TCEP/0.01% Brij-35/0.01% BSG • Detection mix: Eu-anti-pSLP76/SA-XL665 (Cisbio, #610SAXAC)
Assay Procedure Ki Determination:
To a 384 well Proxiplate with 80 nL compound or DMSO spotted on was added 4 μl/well kinase mix. The mixture was preincubated for 30 minutes and then 4 μl/well substrate mix was added. The solution was incubated for 60 min and then 4 μl/well detection mix was added. The solution was incubated for another 60 min. The plates were then loaded onto a Perkin Elmer Envision and the TR-FRET signal was measured at 615 and 665 nm. A ratio of […] was used to calculate the % activity at each concentration of compound.

Sequence of HPK1-FL (HPK full length, T165E S171E) (Q92918 whole entry T165E/S171E): as the sequence (Q92918 whole entry, looked up) above, with T165E, S171E counted along it

Point of comparison: `Cc1cc(-c2ncco2)cc(F)c1-c1cc2cc(NC(=O)[C@H]3[C@H](C)[C@@H]3c3cnn(C)c3)ncc2c(N)n1` (single isomer, unassigned) [Compound 349, N-(8-amino-6-(2-fluoro-6-methyl-4-(oxazol-2-yl)phenyl)-2,7-naphthyridin-3-yl)-2-methyl-3-(1-methyl-1H-pyrazol-4-yl)cyclopropane-1-carboxamide], Ki 6.2 nM. Against it:
- CC(C)N1CCc2cc(Nc3cc4cc(C(C)n5ccccc5=O)nc(N)c4cn3)nn2CC1=O (racemic) [Compound 420, (+/−)-2-((8-amino-6-(1-(2-oxopyridin-1(2H)-yl)ethyl)-2,7-naphthyridin-3-yl)amino)-6-isopropyl-5,6-dihydro-4H-pyrazolo[1,5-d][1,4]diazepin-7(8H)-one] — 260-fold higher, 1640 nM
- Cc1c(N)cncc1-c1cc2cc(Nc3cc4n(n3)CC(=O)N(C)CC4)ncc2c(N)n1 [Compound 415, 2-((8-amino-6-(5-amino-4-methylpyridin-3-yl)-2,7-naphthyridin-3-yl)amino)-6-methyl-5,6-dihydro-4H-pyrazolo[1,5-d][1,4]diazepin-7(8H)-one] — 30-fold lower, 0.21 nM
- Cc1cc(-c2ncco2)cc(F)c1-c1cc2cc(NC(=O)[C@H]3[C@@H](C)[C@@H]3c3cnn(C)c3)ncc2c(N)n1 (single isomer, unassigned) [Compound 350] — 6.4-fold higher, 39.7 nM
- Cc1cc(C(N)=O)cc(F)c1-c1cc2cc(NC(=O)[C@H]3C[C@@H]3c3cnn(C)c3)ncc2c(N)n1 (single isomer, unassigned) [Compound 351] — 19-fold lower, 0.33 nM
- Cc1c(N)cncc1-c1cc2cc(Nc3cc4n(n3)CC(=O)N(C)CC43CC3)ncc2c(N)n1 [Compound 414, 2′-((8-amino-6-(5-amino-4-methylpyridin-3-yl)-2,7-naphthyridin-3-yl)amino)-6′-methyl-5′,6′-dihydrospiro[cyclopropane-1,4′-pyrazolo[1,5-d][1,4]diazepin]-7′(8′H)-one] — 480-fold lower, 0.013 nM
- CC(Oc1ccccn1)c1cc2cc(Nc3cc4n(n3)CC(=O)N(C(C)C)CC4)ncc2c(N)n1 (racemic) [Compound 419, (+/−)-2-((8-amino-6-(1-(pyridin-2-yloxy)ethyl)-2,7-naphthyridin-3-yl)amino)-6-isopropyl-5,6-dihydro-4H-pyrazolo[1,5-d][1,4]diazepin-7(8H)-one] — 82-fold higher, 511 nM
- Cc1cc(C(N)=O)cc(F)c1-c1cc2cc(NC(=O)[C@@H]3C[C@H]3c3cnn(C)c3)ncc2c(N)n1 (single isomer, unassigned) [Compound 352] — within 1.5-fold, 5 nM
